Laboratory results published in patent publication US20060286575A1, “MCL-1 quadruplex nucleic acids and uses thereof” (Cylene Pharmaceuticals, Inc., priority 2005, published 2006).

Experiments:
[1] = tested on: MCL-1 wildtype quadruplex sequence (MCL-wt); experiment: Competition assay (Taq polymerase stop reaction as reporter), competitor MCL-1 wildtype quadruplex; type: binding; details: test compound at its IC50 concentration
Source text: (§1) An example of an affinity competition assay, described hereafter, is useful for determining the relative binding affinities of a test molecule between different types of nucleic acid structures, using the ability of the test molecule to bind and stabilize a specific G-quadruplex structure in a Taq polymerase stop reaction utilized as a reporter system.
(§2) The assay first involves establishing the IC50 of a test molecule in the polymerase arrest assay described above using the fluorescent-labeled oligonucleotide primer. The IC50 concentration is defined as the concentration of test molecule required that yields a 1:1 ratio of quadruplex arrest to full-length product.
(§3) A competitor nucleic acid sequence is titrated into the reaction such that each individual reaction contains the test compound at it's IC50 concentration and an increasing concentration of competitor nucleic acid (increasing from zero). The competitor nucleic acid, may be a short duplex or single strand oligonucleotide, a plasmid DNA sequence, an RNA sequence, or a nucleic acid sequence capable of forming a secondary structure, such as a G-quadruplex. […] The decrease in quadruplex arrest product, relative to the full-length product is measured as a function of concentration of added competitor nucleic acid. Thus the relative binding affinities to different competitor nucleic acid structures can be determined graphically. […]

[2] = tested on: extended MCL-1 sequence (insert 46); experiment: Competition assay (Taq polymerase stop reaction as reporter), competitor extended MCL-1 sequence insert 46; type: binding; details: FIG. 2
Source text: as §1, §2, §3

[3] = tested on: D556 medulloblastoma cells; experiment: Apoptosis induction by Annexin V staining in D556 cells; type: cell-based
Protocol: (§4) FIG. 4 depicts the induction of apoptosis following treatment with CX-3543.
(§5) D556 medulloblastoma cells were exposed to 1 uM Compound A-1 for 19 hours. […] The level of apoptosis induced in D556 as measured by Annexin V staining was about 5.5-fold higher than in DMSO-treated cells, as compared to about 1.9-fold in DAOY cells. The relative amount of down-regulation of MCL-1 (approximately 14-fold compared to about 3.2-fold) correlates with the relative level of apoptosis induction (about 5.5-fold as compared to about 1.9-fold).

[4] = tested on: DAOY medulloblastoma cells; experiment: Apoptosis induction by Annexin V staining in DAOY cells; type: cell-based
Protocol: as §4, §5

[5] = tested on: extended MCL-1 sequence (insert 58); experiment: Competition assay (Taq polymerase stop reaction as reporter), competitor extended MCL-1 sequence insert 58; type: binding; details: FIG. 2
Source text: as §1, §2, §3

MCL-1 mRNA [6] = experiment: MCL-1 mRNA expression in DAOY medulloblastoma cells; type: cell-based; details: 1 uM, 19 hours
Protocol: (§6) FIG. 3 illustrates Mcl-1 mRNA expression levels in medulloblastoma cells treated with CX-3543. The cells were treated at 0.1 and 1 μM CX-3543 for 19 hours, as measured by Affymetrix U133+2.0 47,000 gene chip.
as §5

MCL-1 protein = MCL-1 protein levels in cells contacted with compound; type: cell-based; details: expected from the mRNA and apoptosis results
Protocol: as §5

MCL-1 mRNA [7] = experiment: MCL-1 mRNA expression in D556 medulloblastoma cells (Affymetrix U133+2.0 gene chip); type: cell-based; details: 19 hours
Protocol: as §6, §5

## CN1CCC[C@H]1CCNC(=O)c1cn2c3c(c(N4CCC(c5cnccn5)C4)c(F)cc3c1=O)Oc1cc3ccccc3cc1-2 (stereo partly shown) [Compound A-1]
[1]
  binding to the MCL-1 sequence shown in FIG. 2: binds
[2]
  binding to extended MCL-1 sequence insert 46 compared to the wildtype sequence: comparably higher
[3]; D556 cells
  level of apoptosis induced, relative to DMSO-treated cells: about 5.5 fold
[3]; FIG. 4
  apoptosis induction, D556 compared with DAOY: greater effect of CX-3543 on D556 than on DAOY
[4]
  level of apoptosis induced, relative to DMSO-treated cells: about 1.9 fold
[5]
  binding to extended MCL-1 sequence insert 58 compared to the wildtype sequence: comparably higher
MCL-1 mRNA [6]
  MCL-1 mRNA down-regulation: approximately 3.2 fold
MCL-1 protein
  MCL-1 protein levels: decreased
MCL-1 mRNA [7]; D556 cells, 1 μM, out of more than 500 genes
  rank of Mcl-1 among genes with statistically significant change relative to DMSO control: eighth most highly down-regulated gene
MCL-1 mRNA [7]; D556 medulloblastoma cells, 1 uM
  MCL-1 mRNA down-regulation: approximately 14 fold
